Tests used:
Experiment in all cases: relative viability (nuclei count vs DMSO), 5 days (fraction); higher = more cells survive
[1] = compound: COc1cc(-c2nn([C@H]3CC[C@H](N4CCN(C(C)=O)CC4)CC3)c3ncnc(N)c23)ccc1NC(=O)c1cc2ccccc2n1C + O=C(CCCCCCC(=O)Nc1ccccc1)NO [Vorinostat] (partner 1 µM)
Procedure, shortened: (§1)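 After 5 days of treatment, lung cancer cells in 1536-well plates were fixed and stained in a single step (final 0.05% Triton X-100, 1% formaldehyde, 1 ug/ml Hoechst) and their nuclei counted on 4× images. Treatment had been applied by pin tool the day after seeding as one drug alone or as a fixed anchor-drug dose with five library-drug doses (not always all listed) in √10 steps. Relative viability is the nuclei count of treated wells divided by that of vehicle wells, and values are medians of duplicate plates.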

[2] = compound: COc1cc(-c2nn([C@H]3CC[C@H](N4CCN(C(C)=O)CC4)CC3)c3ncnc(N)c23)ccc1NC(=O)c1cc2ccccc2n1C + Nc1ncn([C@H]2C[C@H](O)[C@@H](CO)O2)c(=O)n1 [Decitabine] (partner 2 µM)
Procedure, shortened: as §1

[3] = compound: COc1cc(-c2nn([C@H]3CC[C@H](N4CCN(C(C)=O)CC4)CC3)c3ncnc(N)c23)ccc1NC(=O)c1cc2ccccc2n1C + Cc1cc(Nc2cc(N3CCN(C)CC3)nc(Sc3ccc(NC(=O)C4CC4)cc3)n2)n[nH]1 [Tozasertib] (partner 0.1 µM)
Procedure, shortened: as §1

Midostaurin + Foretinib = compound: CO[C@@H]1[C@H](N(C)C(=O)c2ccccc2)C[C@H]2O[C@]1(C)n1c3ccccc3c3c4c(c5c6ccccc6n2c5c31)C(=O)NC4 [Midostaurin] + COc1cc2c(Oc3ccc(NC(=O)C4(C(=O)Nc5ccc(F)cc5)CC4)cc3F)ccnc2cc1OCCCN1CCOCC1 [Foretinib] (partner 0.25 µM)
Procedure, shortened: as §1

[4] = compound: COc1cc(-c2nn([C@H]3CC[C@H](N4CCN(C(C)=O)CC4)CC3)c3ncnc(N)c23)ccc1NC(=O)c1cc2ccccc2n1C + O=C(c1cc(Cc2n[nH]c(=O)c3ccccc23)ccc1F)N1CCN(C(=O)C2CC2)CC1 [Olaparib] (partner 8 µM)
Procedure, shortened: as §1

Row | Cell Line | relative viability ([1]; first compound 0.0128 µM) | relative viability ([1]; first compound 0.04048 µM) | relative viability ([1]; first compound 0.128 µM) | relative viability ([1]; first compound 1.28 µM) | relative viability ([2]; first compound 0.0128 µM) | relative viability ([2]; first compound 0.04048 µM) | relative viability ([2]; first compound 0.128 µM) | relative viability ([2]; first compound 1.28 µM) | relative viability ([3]; first compound 0.0128 µM) | relative viability ([3]; first compound 0.04048 µM) | relative viability ([3]; first compound 0.128 µM) | relative viability ([3]; first compound 1.28 µM) | relative viability (Midostaurin + Foretinib; first compound 0.01 µM) | relative viability (Midostaurin + Foretinib; first compound 0.03162 µM) | relative viability (Midostaurin + Foretinib; first compound 0.1 µM) | relative viability (Midostaurin + Foretinib; first compound 0.3162 µM) | relative viability ([4]; first compound 0.0128 µM) | relative viability ([4]; first compound 0.04048 µM) | relative viability ([4]; first compound 0.128 µM) | relative viability ([4]; first compound 1.28 µM)
1 | NCI-H596 | 0.779 | 0.703 | 0.629 | 0.611 | 1.33 | 1.18 | 0.89 | 0.716 | 0.972 | 1.17 | 0.872 | 0.541 | 0.816 | 0.969 | 0.723 | 0.896 | 0.722 | 0.787 | 0.681 | 0.593
2 | NCI-H23 | 0.734 | 0.51 | 0.541 | 0.519 | 0.283 | 0.291 | 0.291 | 0.298 | 0.359 | 0.444 | 0.309 | 0.266 | 0.685 | 1.23 | 0.648 | 0.531 | 0.323 | 0.321 | 0.339 | 0.292
3 | LCLC-97TM1 | 0.875 | 0.395 | 0.735 | 0.968 | 0.295 | 0.224 | 0.257 | 0.235 | 0.275 | 0.252 | 0.201 | 0.253 | 1 | 0.937 | 0.817 | 0.913 | 0.455 | 0.501 | 0.326 | 0.441
4 | EPLC-272H | 0.357 | 0.345 | 0.62 | 0.457 | 0.444 | 0.315 | 0.342 | 0.312 | 0.38 | – | 0.235 | 0.19 | 0.822 | – | 0.653 | 0.606 | 0.666 | 1.01 | 0.729 | 0.589
5 | NCI-H2342 | 0.762 | 0.758 | 0.861 | 0.825 | 0.812 | 0.783 | 0.777 | 0.609 | 0.595 | 0.523 | 0.491 | 0.303 | 1.03 | 0.933 | 0.961 | 0.92 | 0.511 | 0.423 | 0.388 | 0.371
6 | NCI-H1915 | 0.651 | 0.577 | 0.507 | 0.44 | 0.293 | 0.244 | 0.264 | 0.262 | 0.443 | 0.44 | 0.384 | 0.317 | 1.1 | 0.993 | 1.04 | 1.09 | 0.273 | 0.285 | 0.262 | 0.248
7 | NCI-H2405 | 1.01 | 0.886 | 0.834 | 0.374 | 0.861 | 0.55 | 0.657 | 0.362 | 0.741 | 0.601 | 0.656 | 0.391 | 1.05 | 0.985 | 1.01 | 0.96 | 0.908 | 0.719 | 0.756 | 0.453
8 | NCI-H322M | 0.868 | 0.931 | 0.718 | 0.745 | 0.659 | 0.682 | 0.648 | 0.63 | 0.509 | 0.472 | 0.445 | 0.341 | 1.04 | 0.923 | 1.07 | 1.14 | 0.818 | 0.801 | 0.693 | 0.691
9 | NCI-H2170 | 1.09 | 0.969 | 0.8 | 0.704 | 0.533 | 0.53 | 0.479 | 0.471 | 0.805 | 0.738 | 0.688 | 0.639 | 1.05 | 0.951 | 0.477 | 0.735 | 0.72 | 0.615 | 0.595 | 0.541
10 | NCI-H1395 | 0.823 | 0.594 | 0.698 | 0.516 | 0.753 | 0.748 | 0.77 | 0.533 | 0.77 | 0.81 | 0.714 | 0.561 | 1.12 | 1.07 | 0.992 | 1.1 | 0.437 | 0.466 | 0.442 | 0.434
11 | NCI-H358 | 0.706 | 0.672 | 0.523 | 0.646 | 0.224 | 0.206 | 0.246 | 0.167 | 0.107 | 0.104 | 0.103 | 0.0932 | 0.821 | 0.784 | 0.706 | 0.662 | 0.587 | 0.513 | 0.526 | 0.374
12 | NCI-H838 | 0.783 | 0.763 | 0.742 | 0.685 | 0.484 | 0.505 | 0.518 | 0.432 | 0.287 | 0.289 | 0.322 | 0.209 | 1.05 | 0.939 | 0.759 | 0.497 | 0.799 | 0.807 | 0.741 | 0.471

Source: the supplement of paper PMC10307832
